Reference: patent US20230406831A1, “COMPOUNDS AND METHODS OF INHIBITING BACTERIAL CHAPERONIN SYSTEMS” (THE TRUSTEES OF INDIANA UNIVERSITY, priority 2020, published 2023)
Read-outs that look alike come from different tables or passages of the source.

Tests used:
[1] = HEK 293 kidney cell viability / cytotoxicity assay (Alamar Blue); assay type: cell-based; conditions: human, 48 h incubation, Alamar Blue, read-out: HEK 293 Kidney Cell Viability CC50
Description: Evaluating compound effects on kidney cell viability.
HEK 293 cells were maintained in MEM medium (Corning Cellgro, 10-009 CV) supplemented with 10% FBS (Sigma, F2242). […] Cells at 80% confluence were harvested and diluted in growth medium, then 45 μL of the HEK 293 cells (1,500 cells/well) were dispensed per well, and plates were sealed with “Breathe Easy” oxygen permeable membranes (Diversified Biotech) and incubated at 37° C., 5% CO2, for 24 h. […] Plates were sealed with “Breathe Easy” oxygen permeable membranes and incubated for an additional 48 h at 37° C. and 5% CO2. The Alamar Blue reporter reagents were then added to a final concentration of 10%, the plates incubated at 37° C. and 5% CO2, and sample fluorescence (535 nm excitation, 590 nm emission) was read using a Molecular Devices FlexStation II 384-well plate reader (readings taken between 4-24 h of incubation so as to achieve signals in the 30-60% range for conversion of resazurin to resorufin). Cell viability was calculated as per vendor instructions (Thermo Fisher—Alamar Blue cell viability assay manual).

native MDH = target: T1, native MDH (Sus scrofa, UniProt P00346); experiment: Native MDH enzymatic activity counter-screen; assay type: biochemical, pig
T1 construct: soluble pig heart MDH from Roche, product #10127248001; purchased Roche 10127248001; host or cells: pig heart
T1 sequence (P00346 25-338): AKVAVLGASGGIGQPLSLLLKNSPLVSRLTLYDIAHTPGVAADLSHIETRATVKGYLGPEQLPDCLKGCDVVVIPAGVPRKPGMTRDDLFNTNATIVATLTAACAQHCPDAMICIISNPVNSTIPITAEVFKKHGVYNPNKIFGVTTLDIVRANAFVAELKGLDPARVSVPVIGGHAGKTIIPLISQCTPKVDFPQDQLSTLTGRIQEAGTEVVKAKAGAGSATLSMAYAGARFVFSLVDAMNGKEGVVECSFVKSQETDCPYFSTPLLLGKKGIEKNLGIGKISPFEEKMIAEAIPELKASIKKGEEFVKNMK
Description: Counter-screening compounds for inhibition of native MDH enzymatic activity.
Reagent Preparations & Assay Protocol: This assay was performed as described above for the GroEL/ES-dMDH refolding assay; however, the assay protocol differed in the sequence of compound addition to the assay plates. The refolding reactions were allowed to proceed for 45 min at 37° C. in the absence of test compounds (complete refolding of MDH occurs), then quenched with the EDTA stock. Compounds were then pin-transferred into the plates after the EDTA quenching step; thus, compounds effects are only possible by inhibiting the fully-refolded MDH reporter substrate. Next enzymatic activity of the refolded MDH was initiated by addition of 20 μL MDH enzymatic assay stock (20 mM sodium mesoxalate and 2.4 mM NADH in reaction buffer, 50 mM Tris pH 7.4, 50 mM KCl, 1 mM DTT), and followed by measuring the NADH absorbance in each well at 340 nm using a Molecular Devices SpectraMax Plus384 microplate reader
A340 nm measurements were recorded at 0.5 minutes (start point) and at successive time points until the amount of NADH consumed reached ˜90% (end point, generally between 20-35 minutes). Compounds were tested in 8-point, 3-fold dilution series (62.5 μM to 29 nM during the reporter reaction) in clear, flat-bottom 384-well microtiter plates.
DMSO was used as a negative control, and previously discovered native MDH inhibitors were used as positive controls. IC50 values for the test compounds were obtained by plotting the % inhibition results in GraphPad Prism 6 and analyzing by non-linear regression using the log (inhibitor) vs. response (variable slope) equation. Results presented represent the averages of IC50 values obtained from at least quadriplicate (duplicate of duplicate) replicates.

[2] = Table 2, compounds added after refolding and EDTA quench, read-out: Biochemical Assay IC50 Native MDH Activity
[3] = Table 3, compounds added after refolding and EDTA quench, read-out: Biochemical Assay IC50 Native MDH Activity
[4] = Table 1, compounds added after refolding and EDTA quench, read-out: Biochemical Assay IC50 Native MDH Activity

Row | SMILES | IC50 (native MDH; [2]) [µM] | IC50 (native MDH; [3]) [µM] | CC50 at 48 h ([1]; HEK 293 kidney cells, Table 3) [µM] | further results
1 | Cc1cc(C(C#N)c2ccc(Cl)cc2)c(Cl)cc1NC(=O)c1ccccc1 (stereo not drawn) [Compound 82, N-(5-chloro-4-((4-chlorophenyl)(cyano)methyl)-2-methylphenyl)benzamide] | > 63 |  |  | CC50 at 48 h ([1]; Table 2): 47 µM
2 | Cc1cc(C(C#N)c2ccc(Cl)cc2)c(Cl)cc1NC(=O)c1ccc(Cl)cc1O (stereo not drawn) [Compound 56, 4-chloro-N-(5-chloro-4-((4-chlorophenyl)(cyano)methyl)-2-methylphenyl)-2-hydroxybenzamide] | 59 |  |  | CC50 at 48 h ([1]; Table 2): 16 µM
3 | O=C(Nc1ccc(Oc2ccccc2)c(Cl)c1)c1cc(Cl)ccc1O [Compound 91, 5-chloro-N-(3-chloro-4-phenoxyphenyl)-2-hydroxybenzamide] |  | > 63 |  | CC50 at 48 h ([1]; Table 3): 4.7 µM
4 | Cc1cc(C(C#N)c2ccc(Cl)cc2)c(Cl)cc1NC(=O)c1cccc(Cl)c1 (stereo not drawn) [Compound 77, 3-chloro-N-(5-chloro-4-((4-chlorophenyl)(cyano)methyl)-2-methylphenyl)benzamide] | > 63 |  |  | CC50 at 48 h ([1]; HEK 293 kidney cells, Table 2): > 100 µM
5 | COc1ccc(Cl)cc1C(=O)Nc1ccc(CC#N)cc1 [Compound 110, 5-chloro-N-(4-(cyanomethyl)phenyl)-2-methoxybenzamide] |  | > 63 | > 100 | 
6 | N#CCc1ccc(NC(=O)c2cc(Cl)ccc2O)cc1 [Compound 111, 5-chloro-N-(4-(cyanomethyl)phenyl)-2-hydroxybenzamide] |  | > 63 | 19 | 
7 | O=C(Nc1ccc(Oc2ccc(Cl)cc2)c(Cl)c1)c1cc(Cl)ccc1O [Compound 87, 5-chloro-N-(3-chloro-4-(4-chlorophenoxy)phenyl)-2-hydroxybenzamide] |  | > 63 |  | CC50 at 48 h ([1]; Table 3): 10 µM
8 | O=C(Nc1ccc(Oc2ccc(Cl)cc2)cc1)c1cc(Cl)ccc1O [Compound 89, 5-chloro-N-(4-(4-chlorophenoxy)phenyl)-2-hydroxybenzamide] |  | > 63 |  | CC50 at 48 h ([1]; Table 3): 15 µM
9 | Cc1cc(C(C#N)c2ccc(Cl)cc2)c(Cl)cc1NC(=O)c1ccccc1Br (stereo not drawn) [Compound 73, 2-bromo-N-(5-chloro-4-((4-chlorophenyl)(cyano)methyl)-2-methylphenyl)benzamide] | > 63 |  |  | CC50 at 48 h ([1]; Table 2): > 100 µM
10 | COc1ccc(C(=O)Nc2cc(Cl)c(C(C#N)c3ccc(Cl)cc3)cc2C)cc1 (stereo not drawn) [Compound 63, N-(5-chloro-4-((4-chlorophenyl)(cyano)methyl)-2-methylphenyl)-4-methoxybenzamide] | > 63 |  |  | CC50 at 48 h ([1]; HEK 293 kidney cells, Table 2): > 100 µM
11 | O=C(Nc1ccc(CCc2ccccc2)cc1)c1cc(Cl)ccc1O [Compound 101] |  | > 63 | 4.3 | 
12 | COc1ccc(Cl)cc1C(=O)Nc1ccc(C(C#N)c2ccccc2)cc1 (stereo not drawn) [Compound 84, 5-chloro-N-(4-(cyano(phenyl)methyl)phenyl)-2-methoxybenzamide] |  | > 63 | > 100 | 
13 | COc1c(Cl)cc(Cl)cc1C(=O)Nc1cc(Cl)c(C(C#N)c2ccc(Cl)cc2)cc1C (stereo not drawn) [Compound 51, 3,5-dichloro-N-(5-chloro-4-((4-chlorophenyl)(cyano)methyl)-2-methylphenyl)-2-methoxybenzamide] | > 63 |  |  | CC50 at 48 h ([1]; Table 2): 83 µM
14 | Cc1cc(C(C#N)c2ccc(Cl)cc2)c(Cl)cc1NC(=O)c1ccc(O)cc1 (stereo not drawn) [Compound 66, N-(5-chloro-4-((4-chlorophenyl)(cyano)methyl)-2-methylphenyl)-4-hydroxybenzamide] | > 63 |  |  | CC50 at 48 h ([1]; HEK 293 kidney cells, Table 2): 65 µM
15 | CC(=O)Oc1ccccc1C(=O)Nc1ncc([N+](=O)[O-])s1 [Nitazoxanide, reference compound] |  |  |  | CC50 at 48 h ([1]; HEK 293 kidney cells, Table 1): 30 µM; IC50 (native MDH; [4]): > 63 µM
16 | O=C(Nc1ccc(Cc2ccccc2)cc1)c1cc(Cl)ccc1O [Compound 99, N-(4-benzylphenyl)-5-chloro-2-hydroxybenzamide] |  | > 63 |  | CC50 at 48 h ([1]; Table 3): 19 µM

Row | SMILES | IC50 (native MDH; [2]) [µM] | IC50 (native MDH; [3]) [µM] | CC50 at 48 h ([1]; HEK 293 kidney cells, Table 3) [µM] | further results
17 | COc1ccc(Cl)cc1C(=O)Nc1ccccc1 [Compound 116, 5-chloro-2-methoxy-N-phenylbenzamide] |  | > 63 | > 100 | 
18 | Cc1cc(C(C#N)c2ccc(Cl)cc2)c(Cl)cc1NC(=O)c1ccc(N)cc1 (stereo not drawn) [Compound 72, 4-amino-N-(5-chloro-4-((4-chlorophenyl)(cyano)methyl)-2-methylphenyl)benzamide] | > 63 |  |  | CC50 at 48 h ([1]; HEK 293 kidney cells, Table 2): 53 µM
19 | O=C(Nc1ccc(O)cc1)c1cc(Cl)ccc1O [Compound 115, 5-chloro-2-hydroxy-N-(4-hydroxyphenyl)benzamide] |  | > 63 | > 100 | 
20 | O=C(Nc1ccc(Oc2ccc(Cl)cc2)c(Cl)c1)c1cc(I)cc(I)c1O [Rafoxanide, reference compound] |  |  |  | CC50 at 48 h ([1]; Table 1): 82 µM; IC50 (native MDH): 17 µM
21 | COc1ccc(Cl)cc1C(=O)Nc1ccc(NC(C)=O)cc1 [Compound 104, N-(4-acetamidophenyl)-5-chloro-2-methoxybenzamide] |  | > 63 | > 100 | 
22 | Cc1cc(C(C#N)c2ccc(Cl)cc2)c(Cl)cc1NC(=O)c1ccccc1[N+](=O)[O-] (stereo not drawn) [Compound 67, N-(5-chloro-4-((4-chlorophenyl)(cyano)methyl)-2-methylphenyl)-2-nitrobenzamide] | > 63 |  |  | CC50 at 48 h ([1]; HEK 293 kidney cells, Table 2): > 100 µM
23 | COc1ccc(NC(=O)c2cc(Cl)ccc2OC)cc1 [Compound 112, 5-chloro-2-methoxy-N-(4-methoxyphenyl)benzamide] |  | > 63 | > 100 | 
24 | Cc1cc(C(C#N)c2ccc(Cl)cc2)c(Cl)cc1NC(=O)c1ccc(Br)cc1 (stereo not drawn) [Compound 75, 4-bromo-N-(5-chloro-4-((4-chlorophenyl)(cyano)methyl)-2-methylphenyl)benzamide] | > 63 |  |  | CC50 at 48 h ([1]; HEK 293 kidney cells, Table 2): 33 µM
25 | COC(=O)c1ccc(NC(=O)c2cc(Cl)ccc2O)cc1 [Compound 107, methyl 4-(5-chloro-2-hydroxybenzamido)benzoate] |  | > 63 | 11 | 
26 | N#CC(c1ccccc1)c1ccc(NC(=O)c2cc(Cl)ccc2O)cc1 (stereo not drawn) [Compound 85, 5-chloro-N-(4-(cyano(phenyl)methyl)phenyl)-2-hydroxybenzamide] |  | > 63 | 29 | 
27 | Cc1cc(C(C#N)c2ccc(Cl)cc2)c(Cl)cc1NC(=O)c1cccc(F)c1 (stereo not drawn) [Compound 80, N-(5-chloro-4-((4-chlorophenyl)(cyano)methyl)-2-methylphenyl)-3-fluorobenzamide] | > 63 |  |  | CC50 at 48 h ([1]; HEK 293 kidney cells, Table 2): 70 µM
28 | CC(=O)Nc1ccc(NC(=O)c2cc(Cl)ccc2O)cc1 [Compound 105, N-(4-acetamidophenyl)-5-chloro-2-hydroxybenzamide] |  | > 63 | 69 | 
29 | O=C(Nc1ccc([N+](=O)[O-])cc1Cl)c1cc(Cl)ccc1O [Niclosamide, reference compound] |  | > 63 |  | CC50 at 48 h ([1]; HEK 293 kidney cells, Table 1): 1.7 µM; IC50 (native MDH; [4]): > 63 µM
30 | O=C(Nc1cc(Cl)cc(Cl)c1O)c1c(O)c(Cl)cc(Cl)c1Cl [Oxyclosanide, reference compound] |  |  |  | CC50 at 48 h ([1]; HEK 293 kidney cells, Table 1): 30 µM; IC50 (native MDH; [4]): 54 µM
31 | O=C(Nc1ccc(Sc2nc3ccccc3s2)c(Cl)c1)c1cc(Cl)ccc1O [Compound 95, N-(4-(benzo[d]thiazol-2-ylthio)-3-chlorophenyl)-5-chloro-2-hydroxybenzamide] |  | > 63 | 83 | 
